In the test the test system is patients genetically diagnosed with Tay-Sachs disease. Description: Case studies of Tay-Sachs disease patients (SARA, SCAFI, MoCA, mRDS, EQ-5D-5L). Type of test: in vivo, human. From the text: For example, to evaluate overall neurological status, mDRS, a four-domain scale (ambulation, manipulation, language and swallowing), may be applied. Cerebellar function may be evaluated using SARA, an eight-item clinical rating scale (gait, stance, sitting, speech, fine motor function and taxis; range 0-40, where 0 is the best neurological status and 40 the worst), and SCAFI, comprising the 8-m-Walking-Time (8MW; performed by having patients walking twice as quickly as possible from one line to another excluding turning), 9-Hole-Peg-Test (9HPT) and the number of “PATA” repetitions over 10 s. Subjective impairment and quality of life may be evaluated using the EQ-5D-5L questionnaire and VAS. To assess ocular motor function, 3-dimensional videooculography (EyeSeeCam) may be used to measure the peak velocity of saccades, gain of smooth pursuit, peak slow phase velocity of gaze-evoked nystagmus (gaze-holding function), peak slow phase velocity of optokinetic nystagmus, and gain of horizontal vestibulo-ocular reflex. To evaluate the cognitive state, WAIS-R or WISC-IV, and MoCA, assessing different cognitive domains, including attention and concentration, executive functions, memory, language, visuoconstructional skills, conceptual thinking, calculations, and orientation with a maximum of 30 points and a cut-off score of 26, may be used. The skilled person will know how to perform these and other such tests.
In particular, the patient was not able to stand or walk, could do single steps with strong support, had distinct postural instability, ocular movement disorder, dysphagia and dysarthria, and mild cognitive function disorder.
Before treatment was commenced, examination of the patient indicated a Scale for Assessment and Rating of Ataxia (SARA) score of 15.5/40. In addition, results from the patient's Spinocerebellar Ataxia Functional Index (SCAFI) analysis were: • Mean 8-meters Walking Test (8MW): 21.6 s • MW 9-Hole Pegboard Test Dominant (9HPTD) (right): 48.3 s • MW 9-Hole Pegboard Test Non-Dominant (9HPTND): 44.9 s • MW PATA Word Test: 20 • Montreal Cognitive Assessment (MoCA): 18/30
The day following this examination, the patient was started on therapy with acetyl-leucine, at a dose of 3 g per day for the first week, followed by a dose of 5 g per day for the second week onwards.
In particular, walking was not possible without support, and the patient suffered from dysphagia and speech disorder, ocular movement disorder, and mild cognitive function disorder.
Before treatment was commenced, examination of the patient indicated a Scale for Assessment and Rating of Ataxia (SARA) score of 10.5/40. In addition, results from the patient's Spinocerebellar Ataxia Functional Index (SCAFI) analysis were: • Mean 8-meters Walking Test (8MW): 12.5 s • MW 9-Hole Pegboard Test Dominant (9HPTD) (right): 21.5 s • MW 9-Hole Pegboard Test Non-Dominant (9HPTND): 35.5 s • MW PATA Word Test: 18 • Montreal Cognitive Assessment (MoCA): 21/30
The day of the examination, the patient was started on therapy with acetyl-leucine at a dose of 3 g per day for the first week, followed by a dose of 5 g per day for the second week onwards.
The patient in this case study was a person who was genetically diagnosed with Tay-Sachs disease and who had epileptic cramps (tonic-clonic, about 10 seconds, self-limiting) almost every day before falling asleep, ocular movement disorder, anarthria, distinct problems in cognitive function and concentration (neurological examination was not possible), was not able to stand or walk by themself, and was very limited in daily activities (eating, washing or dressing themself was not possible).
Before treatment was commenced, examination of the patient indicated a Scale for Assessment and Rating of Ataxia (SARA) score of 36/40, a mRDS score of 18/24, a EQ-5D-5L visual scale of 50, and a 8MWT of 18.1 (only with strong support). […]

This note sets out measurements from patent publication US12433863B2, “Pharmaceutical compositions and uses directed to lysosomal storage disorders” (INTRABIO LIMITED, priority 2016, dated 2025).

For `CC(=O)NC(CC(C)C)C(=O)O` (racemic) [acetyl-DL-leucine], the “Overall change in symptoms” value (Patient 1) was “improvement in symptoms”. The SARA (Patient 1, 3 g then 5 g per day, after 4 months) is listed as 17/40; the SARA (Patient 2, 3 g then 5 g per day, after one month) is recorded as 5/40; the SARA (Patient 3, 1.5 g then 3 g per day, after one month) was 33/40. The MoCA is 22/30 (Patient 1, after 4 months); 21/30 (Patient 1, after one month); 25/30 (Patient 2, after one month). In addition, the Clinical re-examination findings entry by setting is: (Patient 1, after four months) “stable condition with slightly improved cognitive function but had deterioration of stance, gait and fine motor function”; (Patient 1, after one month) “improved fine motor skills and reduced hand tremor”; (Patient 2, after one month) “increased enunciation, improved postural stability, and enhanced cognitive function”.
